Patent US8975293B2, “Epigenetic co-repressors of the gamma-globin gene and methods of using same” (Regents of the University of Michigan, priority 2011, dated 2015)

Key:
[1] = tested on: primary human erythroid cells; assay: Hemoglobin analysis by HPLC, HbF synthesis; format: cell-based; conditions: day 14, average, untreated control 4.6%
Procedure: (§1) Cryopreserved vials of purified human CD34+ cells, which were isolated from peripheral blood of healthy donors after mobilization with granulocyte colony-stimulating factor, were purchased from the Fred Hutchinson Cancer Research Center. The cells were grown and differentiated ex vivo into the erythroid lineage in 14 days by a two-phase culture method reported previously (Cui et al., 2011, Mol. Cell. Biol., 31:3298-3311; Giarratana et al., 2005, Nat. Biotechnol., 23:69-74). […] Cell morphology was examined by staining cytospins with a Wright-Giemsa stain (Sigma-Aldrich). Hemoglobin synthesis was examined by acid benzidine staining as previously described (Orkin et al., 1975, PNAS USA, 72:98-102).
Cells were lysed and analyzed for hemoglobin composition by the B10-Rad Variant II Hemoglobin Testing System equipped with an ion-exchange HPLC column (Hercules). Averages of three to five biological replicates are presented.
(§2) A pLKO.1-puro lentiviral vector to express the LSD1 shRNA and a puromycin resistance gene was purchased from Sigma-Aldrich (TRCN0000046070), and the control empty vector was generated by removing a region (between EcoRI and NdeI sites) containing the hairpin sequence. Lentiviral particles were generated by transfecting the vectors into a packaging cell line. Cells were exposed to the viruses on day 4 of the culture for 24 hours, and then to 1 μg/ml puromycin on day 6 through day 14 for selection of infected cells.

gamma-globin promoter = conditions: day 11
Procedure: as §1

[2] = tested on: H3K4 demethylase activity of LSD1; conditions: differentiating erythroid cells, normalized to untreated cells
Procedure: as §1

[3] = tested on: primary human erythroid cells; assay: Proliferation and viability of differentiating erythroid cells, trypan blue count; format: cell-based; conditions: day 4 through day 14
Procedure: as §1, §2

[4] = 3 or 10 mg/kg per day s.c., 5 days a week for 4 weeks
Procedure: (§3) Control mice were injected with saline only. After 4 weeks of injections, bone marrow cells were harvested for RTqPCR analysis for expression of the genes for human gamma- and beta-globins, and mouse alpha-globin as an internal control. Three or four mice were used for each experimental condition.

fetal gamma-globin mRNA = format: cell-based, human; conditions: TC treatment, by day 14
Procedure: as §1
Expression of the genes for human gamma- and beta-globins, LSD1, mouse alpha-globin, and 18S rRNA was determined by RT-qPCR assay as described previously (Cui et al., supra). The abundance of each transcript was calculated based on the threshold cycle value and the amplification efficiency, experimentally determined for each primer pair, and then normalized to the abundance of 18S rRNA transcript as an internal control. All the primer pairs except for 18S rRNA were designed to span introns. […]

human gamma-globin gene = conditions: 3 or 10 mg/kg per day s.c., 5 days a week for 4 weeks; dose dependent
Procedure: (§4) Expression of the genes for human gamma- and beta-globins, LSD1, mouse alpha-globin, and 18S rRNA was determined by RT-qPCR assay as described previously (Cui et al., supra). The abundance of each transcript was calculated based on the threshold cycle value and the amplification efficiency, experimentally determined for each primer pair, and then normalized to the abundance of 18S rRNA transcript as an internal control. All the primer pairs except for 18S rRNA were designed to span introns.
as §3

Human beta-globin gene = conditions: 3 or 10 mg/kg per day s.c., 5 days a week for 4 weeks
Procedure: as §4, §3

[5] = tested on: primary human erythroid cells; conditions: 0.5, 1.5 or 5 μM
Procedure: as §1
For cell surface marker analysis, cells were stained with phycoerythrin (PE)-Cy7-conjugated anti-CD34 (eBioscience), PE-conjugated anti-CD71 (eBioscience), and PE-Cy5-conjugated antiglycophorin A (BD Biosciences) antibodies. For cytoplasmic HbF analysis, cells were fixed in 0.05% glutaraldehyde for 10 min, permeabilized in 0.1% Triton X-100 for 5 min, and then stained with allophycocyanin-conjugated anti-HbF antibody (Invitrogen). Stained cells were analyzed with the FACSCanto II (BD Biosciences).

For N[C@@H]1C[C@H]1c1ccccc1 (racemic) [TC, Tranylcypromine], the “HbF, % of total hemoglobin (HPLC)” value ([1]; 0.5 μM) was 13%, the “HbF, % of total hemoglobin (HPLC)” value ([1]; 1.5 μM) was 20% and the “HbF, % of total hemoglobin (HPLC)” value ([1]; 5 μM) was 31%. For the same molecule, the “H3K4 dimethylation at the gamma-globin promoter” value (gamma-globin promoter) was “enhanced H3K4 dimethylation”, the “global H3K4 dimethylation” value [2] was “enhanced global H3K4 dimethylation in a dose dependent manner” and the cell proliferation ([3]; 0.5 μM) was “did not affect”. For the same molecule, the cell viability ([3]; 0.5 μM) was “did not affect”, the cell proliferation ([3]; 1.5 μM) was “did not affect” and the cell viability ([3]; 1.5 μM) was “did not affect”. The cell proliferation ([3]; 5 μM) was “reduced cell proliferation”, the cell viability ([3]; 5 μM) was “without affecting viability” and the “activity of the mice (anecdotal observation)” value [4] was “much more active”. For the same molecule, the “signs of toxic effects on hematological or other systems” value [4] was “did not exhibit any signs of toxic effects”, the tolerability [4] was “well tolerated” and the “induction of fetal gamma-globin mRNA” value (fetal gamma-globin mRNA) was “up to 9.4 fold”. For the same molecule, the “induction of human gamma-globin gene expression in bone marrow cells vs control mice” value (human gamma-globin gene) was “about 3 fold”, the “human beta-globin gene expression in bone marrow cells” value (Human beta-globin gene) was “not significantly affected” and the “cell population positive for both CD71 and GPA” value [5] was “slight to moderate reduction”. The “HbF inductive effect by flow cytometry” value ([5]; day 14) was “both pancellular and dose-dependent”.
